# Results as given in patent US9387248B2, “Pharmaceutical composition comprising antibody composition which specifically binds to CCR4” (KYOWA HAKKO KIRIN CO., LTD, priority 2009, dated 2016).
# Assays:
# [1] = tested on: HH cells grafted into SCID mice; assay: Antitumor effect of anti-CCR4 antibody and Lenalidomide in combination (1), HH cells grafted into SCID mice; assay type: in vivo, SCID mouse; conditions: KM8760 20 mg/kg iv Day 0, 7, 14, Lenalidomide 1 mg/kg ip daily Day 0-13
# Protocol: (§1) HH cells (human multiple myeloma cell; ATCC No: CRL-2105) were suspended in Dulbecco's phosphate buffered saline without calcium chloride and magnesium chloride (PBS, manufactured by Invitrogen) at a density of 1×10^7 cells/mL, and 100 μL of the suspension was transplanted into the ventral skin of SCID mouse (obtained by Nippon Crea, male). Seven days after the cell transplantation, a diameter of a tumor was measured with calipers, and a tumor volume was calculated using the following formula. Tumor volume=short diameter×short diameter×long diameter×0.5 (Formula)
# Individuals having the tumor volume within the range of 41 to 93 mm^3 were selected, and grouped such that the average of tumor volume was to be equal. Then, the following administration groups A to D were arranged. The day of grouping was defined as Day 0.
# (§2) A. Negative control group: Administration of medium
# B. Group administering KM8760 alone: 20 mg/kg was administered on Day 0, Day 7 and Day 14.
# (§3) C. Group administering Lenalidomide alone: 1 mg/kg was administered everyday on Day 0 to Day 13.
# (§4) D. Group administering KM8760 and Lenalidomide in combination: the respective agent was administered on the same schedule and at the same dose as each group administering respective agent alone.
# (§5) The experiment was conducted with groups each consisting of eight mice. KM8760 was diluted with saline (manufactured by Otsuka Pharmaceutical), and the obtained solution was administered from the tail vein. Lenalidomide was suspended with saline containing 0.5% of methylcellulose and the obtained solution was intraperitoneally administered. The tumor volume was measured chronologically. The antitumor effect was evaluated by comparing the average values of values (V/V0) obtained by dividing the tumor volume on each day of measurement by the tumor volume on Day 0 in each group.
# The results of the test for significant differences (One-way ANOVA, Dunnett test) compared with the negative control group are shown in Table 1. In addition, when p<0.05, the value is considered to show a significant difference and is shown with * in the table.
# (§6) In the table, * means the case where the actual value of T/C is smaller than the theoretical value.
# [2] = tested on: HH cells grafted into SCID mice; assay: Antitumor effect of anti-CCR4 antibody and Lenalidomide in combination (2), HH cells grafted into SCID mice; assay type: in vivo, SCID mouse; conditions: KM8760 20 mg/kg iv Day 0, 7, 14, 21, Lenalidomide 1 mg/kg ip daily Day 0-13
# Protocol: as §1, with “cell line;” for “cell;”, “2×10^8” for “1×10^7”
# Individuals having the tumor volume within the range of 51 to 79 mm^3 were selected, and grouped such that the average of tumor volume was to be equal. Then, the following administration groups A to D were arranged. The day of grouping was defined as Day 0.
# as §2
# B. Group administering KM8760 alone: 20 mg/kg was administered on Day 0, Day 7, Day 14 and Day 21.
# as §3, §4
# as §5, with “consisting of twelve mice. KM8760” for “consisting of eight mice. KM8760”, “and the diluent was intraperitoneally” for “and the obtained solution was intraperitoneally”
# The result of a test for a significant difference (Steel-Dwass test) between each group administering the respective agent alone and combination administration group is shown in Table 3. In the table, na means not applicable. In addition, when p<0.05, the value is considered to show a significant difference and is shown with * in the table.
# as §6
# HH cells = assay: ADCC activity of KM8760 with Lenalidomide-treated hPBMC effector cells, 51Cr release; assay type: cell-based, human; conditions: hPBMC effector cells treated with 0.1, 1 or 10 μmol/L Lenalidomide for one, three or five days; effector:target 25:1; KM8760 0.01, 0.1, 1 μg/mL
# Protocol: Mononuclear cells (hPBMC) were obtained from peripheral blood from healthy adults by density-gradient centrifugation using Ficoll-paque (manufactured by GE health care). The obtained hPBMC was suspended in RPMI1640 medium containing 10% of FBS and 1% of penicillin/streptomycin solution (manufactured by Nacalai Tesque) (hereinafter referred to as medium). Lenalidomide was added to the suspension to give a final concentration of […]. The obtained suspension was incubated at 37° C. for one, three or five days. Thereafter incubation, hPBMC was washed one time with the medium, and the washed cells were adjusted to give a concentration of about 5×10^6 cells/mL using the medium. The obtained cells were used as effector cells.
# After 1×10^6 of HH cells suspended in about 100 μL and 20 μL of ^51Cr solution (NEZ030, manufactured by Perkin-Elmer) were mixed, the mixed solution was incubated at 37° C. for 2 to 4 hours so that HH cells were radiolabeled. […]
# On a 96-well U-bottom plate, 50 μL of each of effector cells, target cells and antibody solution was mixed (effector cell:target cell=25:1, final concentration of antibody=0.01, 0.1, or 1 μg/mL) and incubated at 37° C. for 4 hours. […] Herein, CPM was measured using a liquid scintillation counter for microplate (TopCount, manufactured by Perkin-Elmer). […] The rate of cytotoxicity (Lysis %) was calculated using the following formula. […]
Molecule,T/C (V/V0 of group divided by V/V0 of negative control group) ([1]; Day 0),T/C (V/V0 of group divided by V/V0 of negative control group) ([1]; Day 4),T/C (V/V0 of group divided by V/V0 of negative control group) ([1]; Day 7),T/C (V/V0 of group divided by V/V0 of negative control group) ([1]; Day 10),T/C (V/V0 of group divided by V/V0 of negative control group) ([1]; Day 14),T/C (V/V0 of group divided by V/V0 of negative control group) ([1]; Day 17),T/C (V/V0 of group divided by V/V0 of negative control group) ([1]; Day 21),T/C (V/V0 of group divided by V/V0 of negative control group) ([2]; Day 0),T/C (V/V0 of group divided by V/V0 of negative control group) ([2]; Day 4),T/C (V/V0 of group divided by V/V0 of negative control group) ([2]; Day 7),T/C (V/V0 of group divided by V/V0 of negative control group) ([2]; Day 10),T/C (V/V0 of group divided by V/V0 of negative control group) ([2]; Day 14),T/C (V/V0 of group divided by V/V0 of negative control group) ([2]; Day 19),T/C (V/V0 of group divided by V/V0 of negative control group) ([2]; Day 21),T/C (V/V0 of group divided by V/V0 of negative control group) ([2]; Day 24),T/C (V/V0 of group divided by V/V0 of negative control group) ([2]; Day 28),"ADCC activity of KM8760 (cytotoxicity rate, Lysis %, FIG. 3) (HH cells)"
Nc1cccc2c1CN(C1CCC(=O)NC1=O)C2=O (stereo not drawn) [Lenalidomide],1.000,1.041,0.918,0.948,0.875,0.750,0.766,1.00,1.05,0.92,0.93,0.75,0.90,0.88,0.95,0.95,clearly enhanced
"KM8760: human CDR-grafted anti-CCR4 antibody lacking fucose modification, VH SEQ ID NO:11, VL SEQ ID NO:12 (antibody, V domains shown, afucosylated) VH: EVQLVESGGDLVQPGRSLRLSCAASGFIFSNYGMSWVRQAPGKGLEWVATISSASTYSYYPDSVKGRFTISRDNAKNSLYLQMNSLRVEDTALYYCGRHSDGNFAFGYWGQGTLVTVSS VL: DVLMTQSPLSLPVTPGEPASISCRSSRNIVHINGDTYLEWYLQKPGQSPQLLIYKVSNRFSGVPDRFSGSGSGTDFTLKISRVEAEDVGVYYCFQGSLLPWTFGQGTKVEIK",1.000,0.910,0.764,0.750,0.691,0.652,0.639,1.00,0.89,0.71,0.62,0.54,0.54,0.54,0.55,0.53,
